Assay results reported in patent US4182878A, “1-Phenyl-1H-pyrazolo[3,4-d]pyrimidine-4-carbonitrile and a method for its preparation” (The Lion Dentrifice Co., Ltd., priority 1977, dated 1980).

How the values were obtained:
[1] = system: Ehrlich's tumor cells; assay: Carcinostatic activity in ddY mice subcutaneously inoculated with Ehrlich's tumor cells; type: in vivo; conditions: for Weight of tumor tissues in the sample group (S) / Ratio of S/C: 14 days after inoculation; for Weight of tumor tissues in the sample group (S) / Toxicity, ratio of died mice / Ratio of S/C: 1 mg daily intraabdominal injection; for Weight of tumor tissues in the sample group (S) / Toxicity, ratio of died mice: dosage period 10 days (I, IV) or 7 days (XI, VI, X); for Evaluation: based on the ratios of S/C in percentages; for effectiveness in preventing the multiplication of cancer cells: conclusion in words from the table; for Toxicity, ratio of died mice: number of mice died in the group during 14 days after transplantation; for Ratio of S/C: tumor weight sample/control, control 4.44 ± 1.02 g (I, IV), 1.36 ± 0.15 g (XI, VI), 1.52 ± 0.27 g (X)
Procedure: In addition to the foregoing examples of preparation processes, Compounds I, IV, VI, X and XI were evaluated with respect to their carcinostatic activities and acute toxicities by animal tests as follows.
Each of mice (ddY) having a body weight of about 25 g was subcutaneously innoculated with 3×10^6 of Ehrlich's tumor cells, and the thus inoculated mice were divided into 5 "sample" groups and 3 "control" groups, each group consisting of five or four mice. The thus treated mice belonging to the control groups were observed over a period of 14 days. On the other hand, each mouse belonging to the sample groups was given a 1 mg dose of Compounds I, IV, VI, XI or X by injection into the abdominal coelom every day during the period beginning after 24 hours from the innoculation of the tumor cells, and as indicated in the table below.
At the end of the 14-day period following the above-mentioned innoculation of the tumor cells, the tumor tissues of each mouse were taken out and weighed, so that comparison could be made between the weights of the tumor tissues taken from the sample groups and the control groups. Further in the table, "Toxicity" is expressed by the number of mice died in the group during the 14-day period following the transplantation of the cancer cells and "Evaluation" is based on the ratios of S/C in percentages and expressed by "++" when the percentage is 0-25%, "+" when the percentage is 26-50%, and "±" when the percentage is 51-75%.

[2] = Acute toxicity, LD50 by oral administration; conditions: in vivo, mouse
[3] = Stability of the compound; type: physicochemical

| Compound | Weight of tumor tissues in the sample group (S) [1] [g] | Evaluation [1] | effectiveness in preventing the multiplication of cancer cells [1] | Toxicity, ratio of died mice [1] | Ratio of S/C [1] [%] | LD50 [2] [mg/kg] | stability [3] |
| --- | --- | --- | --- | --- | --- | --- | --- |
| N#Cc1ncnc2c1cnn2-c1ccccc1 [Compound I, 1-phenyl-1H-pyrazolo[3,4-d]pyrimidine-4-carbonitrile] | 0.43 ± 0.40 | ++ (the percentage is 0-25%) | very effective in preventing the multiplication of cancer cells | 1/5 | 9.7 | 100 | stable |
| NC(=O)c1ncnc2c1cnn2-c1ccccc1 [Compound IV, 1-phenyl-1H-pyrazolo[3,4-d]pyrimidine-4-carboxamide] | 3.05 ± 1.40 | ± (the percentage is 51-75%) | effective in preventing the multiplication of cancer cells | 0/5 | 68.7 |  |  |
| NC(=NO)c1ncnc2c1cnn2-c1ccccc1 [Compound VI, 1-phenyl-1H-pyrazolo[3,4-d]pyrimidine-4-carboxamidoxime] | 0.43 ± 0.15 | + (the percentage is 26-50%) | effective in preventing the multiplication of cancer cells | 0/4 | 31.6 |  |  |
| O=C(O)c1ncnc2c1cnn2-c1ccccc1 [Compound X, 1-phenyl-1H-pyrazolo[3,4-d]pyrimidine-4-carboxylic acid] | 1.14 ± 0.27 | ± (the percentage is 51-75%) | effective in preventing the multiplication of cancer cells | 0/4 | 75.0 |  |  |
| NC(=S)c1ncnc2c1cnn2-c1ccccc1 [Compound XI, 1-phenyl-1H-pyrazolo[3,4-d]pyrimidine-4-thiocarboxamide] | 0.63 ± 0.08 | + (the percentage is 26-50%) | effective in preventing the multiplication of cancer cells | 0/4 | 46.3 |  |  |
